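Test compounds were applied to cells in 96-well plates for 48 hours at 5 doses. TGI: concentration producing complete growth inhibition.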
Experiments:
Experiment in all cases: NCI anticancer screen, dose series, 48 h
[1] = system: CCRF-CEM leukemia
[2] = system: SN12C renal
[3] = system: NCI-H460 lung
[4] = system: EKVX NSCLC
[5] = system: RPMI-8226 leukemia
[6] = system: A498 renal
[7] = system: SF-295 CNS
[8] = system: SNB-75 CNS
[9] = system: NCI-H226 lung
[10] = system: OVCAR-4 ovarian
[11] = system: M19-MEL melanoma
[12] = system: SW-620 colon
[13] = system: OVCAR-3 ovarian
[14] = system: IGROV1 ovarian
[15] = system: DLD-1 colon
[16] = system: KM12 colon
[17] = system: NCI-H23 lung
[18] = system: MOLT-4 leukemia
[19] = system: SK-MEL-2 melanoma
[20] = system: UO-31 renal
[21] = system: UACC-62 melanoma
[22] = system: TK-10 renal
[23] = system: DMS 114 small cell lung
[24] = system: SF-268 CNS
[25] = system: SK-MEL-5 melanoma
[26] = system: K-562 leukemia
[27] = system: SK-OV-3 ovarian
[28] = system: HOP-18 NSCLC
[29] = system: HCT-116 colon
[30] = system: HT29 colon
[31] = system: OVCAR-5 ovarian
[32] = system: LXFL 529 NSCLC
[33] = system: M14 melanoma
[34] = system: SNB-19 CNS
[35] = system: SNB-78 CNS
[36] = system: UACC-257 melanoma
[37] = system: CAKI-1 renal
[38] = system: LOX IMVI melanoma
[39] = system: HL-60(TB) leukemia
[40] = system: SF-539 CNS
[41] = system: DMS 273 small cell lung
[42] = system: RXF 393 renal
[43] = system: KM20L2 colon
[44] = system: HCC-2998 colon
[45] = system: ACHN renal
[46] = system: NCI-H522 lung
[47] = system: SR leukemia
[48] = system: 786-0 renal
[49] = system: OVCAR-8 ovarian
[50] = system: SK-MEL-28 melanoma
[51] = system: MALME-3M melanoma
[52] = system: HCT-15 colon
[53] = system: A549 NSCLC
[54] = system: U251 CNS
[55] = system: COLO 205 colon
[56] = system: HOP-62 NSCLC
[57] = system: XF 498 CNS
[58] = system: HOP-92 NSCLC

Measured: TGI

O=C1[C@H]2ON(c3ccccc3)C(c3cccc([N+](=O)[O-])c3)[C@H]2C(=O)N1c1ccc(Cc2ccc(N3C(=O)[C@@H]4ON(c5ccccc5)C(c5cccc([N+](=O)[O-])c5)[C@@H]4C3=O)cc2)cc1 (stereo partly specified)
97.5 µM: [6]
60.8 µM: [33]
not listed: [57] | [58]
> 100 µM: all other assays above

COc1ccc2[nH]c3c(C)c4cc[n+](COC(=O)c5ccccc5)cc4c(C)c3c2c1
5.97 µM: [45]
1.65 µM: [7]
1.46 µM: [26]
3.81 µM: [24]
6.85 µM: [34]
5.78 µM: [27]
24 µM: [56]
5.67 µM: [57]
0.584 µM: [18]
0.213 µM: [47]
1.7 µM: [5]
1.75 µM: [1]
0.312 µM: [28]
4.4 µM: [22]
4.13 µM: [39]
5.27 µM: [13]
> 100 µM: [37]
5.68 µM: [20]
7.06 µM: [51]

COC(=O)Cc1cc(=O)oc2c1C(=O)CCC2
not listed: [28] | [47]
> 100 µM: all other assays above

O=c1/c(=C/c2ccc3c(c2)OCO3)sc2nnc(Cc3ccccc3)n12
not listed: [30] | [47] | [57]
> 100 µM: all other assays above
